According to patent US20100210649A1, “PYRIDAZINONES AND FURAN-CONTAINING COMPOUNDS” (Sloan-Kettering Institute for Cancer Research, priority 2006, published 2010):
Read-outs that look alike come from different tables or passages of the source.

Legend:
H1650 = test: Non Small Cell Lung Cancer proliferation assay (Alamar Blue reduction), H1650; format: cell-based, human; details: Homo sapiens; for IC50: NCI-H1650, dose response 10 M to 5 nM, read-out: Dose Response (uM) H1650
Procedure, shortened: (§1)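 Compounds are tested at 1% DMSO final concentration against adherent NSCLC cells for 48 h at 37° C, with cytotoxicity measured by Alamar Blue reduction after a further 48 h incubation.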

H1975 = test: Non Small Cell Lung Cancer proliferation assay (Alamar Blue reduction), H1975; format: cell-based, human; details: Homo sapiens; for IC50: NCI-H1975, dose response 10 M to 5 nM, read-out: Dose Response (uM) H1975
Procedure, shortened: as §1

H2030 = test: Non Small Cell Lung Cancer proliferation assay (Alamar Blue reduction), H2030; format: cell-based, human; details: Homo sapiens; for IC50: NCI-H2030, dose response 10 M to 5 nM, read-out: Dose Response (uM) H2030
Procedure, shortened: as §1

H3255 = test: Non Small Cell Lung Cancer proliferation assay (Alamar Blue reduction), H3255; format: cell-based, human; details: Homo sapiens; for IC50: NCI-H3255, dose response 10 M to 5 nM, read-out: Dose Response (uM) H3255
Procedure, shortened: as §1

H358 = test: Non Small Cell Lung Cancer proliferation assay (Alamar Blue reduction), H358; format: cell-based; details: Homo sapiens, read-out: Dose Response (uM) H358
Experimental: (§2) These cells have a doubling time of 1-2 days. All cell types are adherent and grow in colonies. The cells should be kept at a density between 50,000 cells/mL -500,000 cells/mL to provide for optimum growth and adequate nutrition. The cell line should be maintained at 37° C. in a humidified atmosphere with 5% CO2 in a sterile cell culture incubator.
(§3) Non Small Cell Lung Cancer Proliferation Assay.
(§4) High Controls for this assay are made by treating Non Small Cell Lung Cancer cells with 5 ul of 10% DMSO. [Final concentration in this assay is 1% DMSO].
(§5) Important Note: All compounds for testing in this assay should be done at the final concentration of 1% DMSO.
(§6) After addition, the cells are placed in cell culture incubator at 37° C. for 48 hours for complete treatment.
(§7) After drug treatment, cytotoxicity is measured by Alamar Blue reduction.
(§8) The cells are incubated for 48 hours at 37° C. to complete the Alamar Blue reduction.
(§9) The final step in the assay is to measure the amount of Alamar Blue reduction. […] The Alamar Blue fluorescence is measured at an excitation of 530 nm and emission of 590 nm.
(§10) For the NSCLC project, the cell based assay was screened against a small molecule library of approximately 200,000 compounds. The compound library is stored in our automated robotic freezer (Biophile) at −20° C. in 100% DMSO. Compound freeze and thaw cycles are kept to a minimum. […] This assay was performed on a fully automated linear track robotic platform (CRS F3 Robot System, Thermo Electron Corp., Ontario, Canada) utilizing several integrated peripherals for plate handling, liquid dispensing, and readout detection. […] The microplates are then placed at 37° C. for 48 hours to complete treatment of cells with compounds. Next, 5 ul of alamar blue was added using a liquid dispenser (Flexprop Precision Dispenser, Perkin Elmer, Mass., USA) and incubated for 48 hours at 37° C. The alamar blue prompt fluorescence was measured on Victor V (Victor^3 V, Perkin Elmer, Mass., USA) and output data files were loaded into ORIS (Oncology Research Informatics System, MSKCC, NY, USA), a screening data acquisition and analysis platform.
(§11) The dose response studies were done with the following standard procedure. First, the cells were counted and dispensed at 250 cells/well into 384-well microplates with compound. The cells were incubated for 48 hours at 37 C to complete treatment, and then alamar blue was added for an additional 48 hours. Finally, alamar blue reduction was measured and the data was loaded into ORIS, our data screening acquisition platform.

H827 = test: Non Small Cell Lung Cancer proliferation assay (Alamar Blue reduction), H827; format: cell-based; details: Homo sapiens; read-out: Dose Response (uM) H827
Experimental: […] are grown and maintained in Corning 175 cm2 flasks in RPMI 1640 media supplemented with 10% FBS, 1% antibiotic solution, 1% additional glutamine and pyruvate. These cells have a doubling time of 1-2 days. All cell types are adherent and grow in colonies. The cells should be kept at a density between 50,000 cells/mL -500,000 cells/mL to provide for optimum growth and adequate nutrition. The cell line should be maintained at 37° C. in a humidified atmosphere with 5% CO2 in a sterile cell culture incubator.
(§12) Non Small Cell Lung Cancer Proliferation Assay. To perform the assay, the Non Small Cell Lung Cancer lines are diluted in media and plated into 384 well microplates at a final density of 250 cells in […]. To ensure consistency and minimal pipetting error, the cells are plated using the Multidrop 384 with the following settings: Rocker Switch set at 384, Volume 45 and Column 24.
(§13) Low Controls for this assay are made by treating Non Small Cell Lung Cancer cells with 5 ul of staurosporine at 250 uM in 10% DMSO and 1% SDS. [Final concentration in this assay is 25 uM staurosporine in 1% DMSO and 0.1% SDS.]
as §4
(§14) The remaining wells of the 384 microplate may be treated with different compounds depending on the study. Important Note: All compounds for testing in this assay should be done at the final concentration of 1% DMSO.
as §6
(§15) After drug treatment, cytotoxicity is measured by Alamar Blue reduction. 5 μL of Alamar Blue is added to the 384 microplates using the Flexdrop.
as §8, §9
(§16) For the NSCLC project, the cell based assay was screened against a small molecule library of approximately 200,000 compounds. The compound library is stored in our automated robotic freezer (Biophile) at −20° C. in 100% DMSO. Compound freeze and thaw cycles are kept to a minimum. Compounds for use are diluted into the appropriate concentration and plated into 384 well microplates using our custom built low volume 384-well head tool (TPS 384, Apricot Designs Inc., CA, USA). This assay was performed on a fully automated linear track robotic platform (CRS F3 Robot System, Thermo Electron Corp., Ontario, Canada) utilizing several integrated peripherals for plate handling, liquid dispensing, and readout detection. First, non-small cell lung cancer cell lines are dispensed into 384 well microplates (Corning #3712 Tissue Culture Treated Plate, Corning, N.Y., USA) with 5 μL of test compounds at 100 uM in 10% DMSO for screening studies or […] in 10% DMSO to 50 nM in 10% DMSO for dose response studies. The microplates are then placed at 37° C. for 48 hours to complete treatment of cells with compounds. Next, 5 ul of alamar blue was added using a liquid dispenser (Flexprop Precision Dispenser, Perkin Elmer, Mass., USA) and incubated for 48 hours at 37° C. The alamar blue prompt fluorescence was measured on Victor V (Victor^3 V, Perkin Elmer, Mass., USA) and output data files were loaded into ORIS (Oncology Research Informatics System, MSKCC, NY, USA), a screening data acquisition and analysis platform.

H1118 = test: Non Small Cell Lung Cancer proliferation assay (Alamar Blue reduction), H1118; format: cell-based; details: Homo sapiens; read-out: Dose Response (uM) H1118
Experimental: as §12, §13, §4, §14, §6, §15, §8, §9, §16, §11

H1734 = test: Non Small Cell Lung Cancer proliferation assay (Alamar Blue reduction), H1734; format: cell-based, human; details: Homo sapiens, read-out: Dose Response (uM) H1734
Experimental: as §2, §3, §4, §5, §6, §7, §8, §9, §10, §11

in vitro = details: human
Experimental: NHBE (normal human bronchiolar epithelial cells) are primary cells obtained from donor lungs and commercially available from Cambrex. The HPL1D (human peripheral lung epithelial) cell line has been immortalized with the SV40 large T-antigen. WI-38: human lung fibroblast cell line. HPLID, NHBE and WI-38 cells will serve as controls in the chemical screens. WT: wildtype; WT*: over-expressed wildtype.
Compounds were tested in dose response studies from […] to 5 nM against several non small cell lung cancer lines: H358, H827, H1118, H1650, H1734, H1975, H2030, and H3255, and were also studied in a 72 hour cytotoxicity assay against the NHBE and WI-38 cell lines.

| Structure (SMILES) | IC50 (H1650) [µM] | IC50 (H1975) [µM] | IC50 (H2030) [µM] | IC50 (H3255) [µM] | IC50 (H358; NCI-H358) [µM] | IC50 (H827) [µM] | IC50 (H1118) [µM] | IC50 (H1734; NCI-H1734) [µM] | IC50 at 72 h (in vitro; CytoTox (uM) NHBE) [µM] | IC50 at 72 h (in vitro; CytoTox (uM) WI-38) [µM] | IC50 (H358; NCI-H358, dose response 10 M to 5 nM, IC50) [µM] | IC50 (H1734; NCI-H1734, dose response 10 M to 5 nM, IC50) [µM] | inhibition at 10 µM (H1650; NCI-H1650, primary screening, 10 μM compound in 1% DMSO (v/v), read-out: percentage inhibition H1650) [%] | inhibition at 10 µM (H1975; NCI-H1975, primary screening, 10 μM compound in 1% DMSO (v/v), read-out: percentage inhibition H1975) [%] | inhibition at 10 µM (H2030; NCI-H2030, primary screening, 10 μM compound in 1% DMSO (v/v), read-out: percentage inhibition H2030) [%] | inhibition at 10 µM (H3255; NCI-H3255, primary screening, 10 μM compound in 1% DMSO (v/v), read-out: percentage inhibition H3255) [%] |
| --- | --- | --- | --- | --- | --- | --- | --- | --- | --- | --- | --- | --- | --- | --- | --- | --- |
| CN/N=C1\C=NN(c2ccc(C)cc2)C(=O)C1Cl (centres unmarked) [compound 257025] | > 10 | > 10 | > 10 | > 10 | > 10 | > 10 | > 10 | > 10 | > 10 | > 10 | – | – | – | – | – | – |
| O=c1c(Cl)c(Cl)cnn1-c1c(Cl)cc(C(F)(F)F)cc1Cl [compound 267059] | > 10 | > 10 | > 10 | > 10 | > 10 | – | – | > 10 | > 10 | > 10 | – | – | – | – | – | – |
| O=C(O)CCC(=O)NCCCOc1cccc(-n2ncc(Br)c(Br)c2=O)c1 [compound 273633] | > 10 | > 10 | > 10 | > 10 | > 10 | – | – | > 10 | > 10 | > 10 | – | – | – | – | – | – |
| CCN(CC)c1cnn(-c2cccc(C)c2)c(=O)c1Cl [compound 267074] | > 10 | > 10 | > 10 | > 10 | > 10 | – | – | > 10 | > 10 | > 10 | – | – | – | – | – | – |
| Cc1cccc(-n2ncc(I)cc2=O)c1 [compound 267086] | > 10 | 6.76 | > 10 | > 10 | > 10 | – | – | > 10 | > 10 | > 10 | – | – | – | – | – | – |
| Cc1cccc(-n2nc(OCCCNC(=O)CCC(=O)O)c(Cl)c(Cl)c2=O)c1 [compound 273632] | > 10 | > 10 | > 10 | > 10 | > 10 | – | – | > 10 | > 10 | > 10 | – | – | – | – | – | – |
| COc1ccc(=O)n(-c2cccc(C)c2)n1 [compound 257029] | > 10 | > 10 | > 10 | > 10 | > 10 | – | – | > 10 | > 10 | > 10 | – | – | – | – | – | – |
| Cc1cccc(-n2ncc(N=[N+]=[N-])c(Cl)c2=O)c1 [compound 267082] | > 10 | > 10 | > 10 | > 10 | > 10 | – | – | > 10 | > 10 | > 10 | – | – | – | – | – | – |
| CCN(CC)c1c(Cl)cnn(-c2cccc(C)c2)c1=O [compound 267076] | > 10 | > 10 | > 10 | > 10 | > 10 | – | – | > 10 | > 10 | > 10 | – | – | – | – | – | – |
| CCOc1cnn(-c2cccc(C)c2)c(=O)c1Cl [compound 267075] | > 10 | > 10 | > 10 | > 10 | – | – | – | – | > 10 | > 10 | > 10 | > 10 | – | – | – | – |
| COc1cnn(-c2ccccc2)c(=O)c1SCc1ccc(Cl)cc1Cl [compound 208701] | – | – | – | – | – | – | – | – | – | – | – | – | -4 | -25 | 7 | 7 |
